For test [1], the target named is T1, α-Gal A mutant form W204G (Homo sapiens, UniProt P06280, W204G).
T1 construct: expressed in transfected cells; host or cells: HEK-293
T1 sequence (P06280 32-429 W204G): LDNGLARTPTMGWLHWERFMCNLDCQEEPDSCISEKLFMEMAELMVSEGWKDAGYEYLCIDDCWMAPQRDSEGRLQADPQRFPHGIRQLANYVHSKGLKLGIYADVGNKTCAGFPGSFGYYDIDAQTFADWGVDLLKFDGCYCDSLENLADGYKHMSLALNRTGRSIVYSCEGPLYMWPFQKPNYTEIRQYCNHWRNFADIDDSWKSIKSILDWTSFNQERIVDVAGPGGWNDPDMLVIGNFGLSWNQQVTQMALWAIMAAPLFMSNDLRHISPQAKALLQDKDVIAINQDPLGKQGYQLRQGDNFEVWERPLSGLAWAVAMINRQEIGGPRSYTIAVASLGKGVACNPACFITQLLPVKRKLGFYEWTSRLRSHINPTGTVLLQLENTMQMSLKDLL
The test is described as follows: α-Gal A activity in lysates of transfected HEK-293 cells, W204G. The class given is cell-based. The procedure:
(§1) Baseline and 10 μM migalastat α-Gal A activity: Differences in the α-Gal A activity between lysates incubated in the absence and presence of 10 μM migalastat were determined using a one-tailed, Mann Whitney U test; an increase at 10 μM migalastat with a p<0.05 was considered significant.
(§2) 10 μM migalastat α-Gal A activity (% WT)=(α-Gal A activity in mutant transfected cell lysates incubated with 10 μM migalastat÷α-Gal A activity in wild-type transfected cell lysates without migalastat)*100.
(§3) Absolute increase (% WT)=is the 10 μM migalastat α-Gal A activity (% WT) minus the baseline α-Gal A activity (% WT).
(§4) Relative increase is the 10 μM migalastat α-Gal A activity in mutant transfected cell lysates÷baseline α-Gal A activity in mutant transfected cell lysates incubated without migalastat.

Test [2] deals with T2, α-Gal A mutant form V22G (Homo sapiens, UniProt P06280).
T2 construct: expressed in transfected cells; host or cells: HEK-293
T2 sequence (P06280 32-429): T1 sequence (P06280 32-429 W204G) with G173W
The test is described as follows: α-Gal A activity in lysates of transfected HEK-293 cells, V22G. In kind it is cell-based. On the procedure: as §1, §2, §3, §4

Test [3] deals with T3, α-Gal A mutant form A156S (Homo sapiens, UniProt P06280, A156S).
T3 construct: expressed in transfected cells; host or cells: HEK-293
T3 sequence (P06280 32-429 A156S): T1 sequence (P06280 32-429 W204G) with A125S, G173W
The test is described as follows: α-Gal A activity in lysates of transfected HEK-293 cells, A156S. The class given is cell-based. On the procedure: as §1, §2, §3, §4

The target of test [4] is T4, α-Gal A mutant form N320H (Homo sapiens, UniProt P06280, N320H).
T4 construct: expressed in transfected cells; host or cells: HEK-293
T4 sequence (P06280 32-429 N320H): T1 sequence (P06280 32-429 W204G) with G173W, N289H
The test is described as follows: α-Gal A activity in lysates of transfected HEK-293 cells, N320H. In kind it is cell-based. The procedure:
as §1, §2, §3, §4

The target of test [5] is T5, α-Gal A mutant form P323T (Homo sapiens, UniProt P06280, P323T).
T5 construct: expressed in transfected cells; host or cells: HEK-293
T5 sequence (P06280 32-429 P323T): T1 sequence (P06280 32-429 W204G) with G173W, P292T
Kind of test: α-Gal A activity in lysates of transfected HEK-293 cells, P323T. The class given is cell-based. On the procedure:
as §1, §2, §3, §4

The test system of test [6] is mutant form of α-Gal A expressed in HEK-293 cells. The test is described as follows: HEK assay amenability criteria (relative increase ≥1.20-fold and absolute increase ≥3.0% wild-type).
Procedure: The α-Gal A activity was measured in lysates prepared from HEK-293 cells transiently transfected with the indicated mutant form of α-Gal A and incubated in the absence or presence of 10 μM migalastat for 5 days. The α-Gal A activity is expressed as the nmoles of free 4-MU released per milligram of protein per hour (nmol/mg/hr). Baseline α-Gal A activity and α-Gal A activity after incubation with 10 μM migalastat, were additionally expressed as a percentage of baseline wild-type α-Gal A activity (% WT). The wild-type α-Gal A activity that was used to calculate these percentages was the average activity measured in lysates from wild-type transfected cells, incubated in the absence of migalastat, measured in parallel.
Where [7] appears, read: HEK-293 lysates, 10 μM migalastat, 5 days, mean ± SEM.
[8] abbreviates: 10 μM migalastat minus baseline.
The mark [9] stands for this setting: 10 μM migalastat ÷ baseline activity.

Substitutions are numbered along the chain they refer to.

`OC[C@H]1NC[C@H](O)[C@@H](O)[C@H]1O` [migalastat, (2R,3S,4R,5S)-2-(hydroxymethyl) piperdine-3,4,5-triol]: the “Absolute increase (% WT)” value was 6.5 % WT in test [1] (10 μM migalastat minus baseline (baseline BLD)); 9.0 % WT in test [2] (setting [8]); 18.4 % WT in test [3] (setting [8]); 32.2 % WT in test [4] (setting [8]); 12.3 % WT in test [5] (setting [8]). The “10 nM migalastat α-Gal A activity” value in test [1] (HEK-293 lysates, 10 nM migalastat as printed, 5 days, mean ± SEM, baseline BLD) was 1695 ± 198 nmol/mg/h. For the same molecule, the “10 μM migalastat α-Gal A activity (% WT)” value in test [1] (setting [7]) came to 6.5 ± 0.7 % WT; in test [2] (setting [7]), 24.6 ± 2.8 % WT; in test [3] (setting [7]), 85.1 ± 53 % WT; in test [4] (setting [7]), 52.9 ± 3.1 % WT; in test [5] (setting [7]) it was 71.3 ± 4.1 % WT. The Relative increase in test [2] (setting [9]) was 1.53; in test [3] (setting [9]), 1.29; in test [4] (setting [9]) it was 2.59; in test [5] (setting [9]), 1.21. Further, the “10 μM migalastat α-Gal A activity” value in test [2] (setting [7]) came to 7150 ± 700 nmol/mg/h; in test [3] (setting [7]), 31597 ± 2293 nmol/mg/h; in test [4] (setting [7]) it was 22149 ± 1050 nmol/mg/h; in test [5] (setting [7]), 29631 ± 1144 nmol/mg/h. The “in vitro response to incubation with migalastat (amenability)” value is given as “met amenability criteria” in test [6] (Table 2, mutations D33H, G35A, Y88S, T194A, W204G, Y216S, Q250K, and R392T); “met amenability criteria” in test [6] (Table 3, mutations printed as D33H, G35A, Y88S, T194A, W204G, Y216S, Q250K, and R392T); “met amenability criteria” in test [6] (Table 4, mutations V22G, N34H, G80V, Q107R, Y152D, A156S, L189F, W204L, S238G, 1239M, A257V, P259Q, N320H, P323T, E338V, P380L, and T412P).

The values above are taken from US12594268B2, “Methods of treating Fabry disease in patients having a mutation in the GLA gene” (Amicus Therapeutics, Inc., priority 2018, dated 2026).
